# Reference: ChEMBL document CHEMBL3045943, “Novel N-aryl(alkaryl)-2-[(3-R-2-oxo-2H-[1,2,4]triazino[2,3-c]quinazoline-6-yl)thio]acetamides: synthesis, cytotoxicity, anticancer activity, COMPARE analysis and docking” (2013)
# What was measured:
# Assay type in all cases: functional
# MDA-MB-435 = experiment: Cytotoxicity against Homo sapiens (human) MDA-MB-435 cells assessed as cell growth at 10 uM after 48 hr by SRB assay relative to control; conditions: MDA-MB-435, 48 h, read-out: Activity
# [1] = tested on: Photobacterium leiognathi; experiment: Growth inhibition of Photobacterium leiognathi Sh1 assessed as bio-luminescence at 0.1 mg/ml after 16 to 18 hr by chronic action test relative to control; set-up: scale not given: the % may be the effect or the level left
# [2] = tested on: Photobacterium leiognathi; experiment: Growth inhibition of Photobacterium leiognathi Sh1 assessed as bio-luminescence at 0.025 mg/ml after 16 to 18 hr by chronic action test relative to control; set-up: scale not given: the % may be the effect or the level left
# [3] = tested on: Photobacterium leiognathi; experiment: Growth inhibition of Photobacterium leiognathi Sh1 assessed as bio-luminescence at 0.25 mg/ml after 10 min by acute action test relative to control; set-up: scale not given: the % may be the effect or the level left
# [4] = tested on: Photobacterium leiognathi; experiment: Growth inhibition of Photobacterium leiognathi Sh1 assessed as bio-luminescence at 0.1 mg/ml after 10 min by acute action test relative to control; set-up: scale not given: the % may be the effect or the level left
# [5] = tested on: Photobacterium leiognathi; experiment: Growth inhibition of Photobacterium leiognathi Sh1 assessed as bio-luminescence at 0.025 mg/ml after 10 min by acute action test relative to control; set-up: scale not given: the % may be the effect or the level left
# NCI-H522 = experiment: Cytotoxicity against Homo sapiens (human) NCI-H522 cells assessed as cell growth at 10 uM after 48 hr by SRB assay relative to control; conditions: NCI-H522, 48 h, read-out: Activity
# [6] = tested on: Photobacterium leiognathi; experiment: Growth inhibition of Photobacterium leiognathi Sh1 assessed as bio-luminescence at 0.25 mg/ml after 16 to 18 hr by chronic action test relative to control; set-up: scale not given: the % may be the effect or the level left
# LOX IMVI = experiment: Cytotoxicity against Homo sapiens (human) LOXIMVI cells assessed as cell growth at 10 uM after 48 hr by SRB assay relative to control; conditions: read-out: Activity
# OVCAR-3 = experiment: Cytotoxicity against Homo sapiens (human) OVCAR3 cells assessed as cell growth at 10 uM after 48 hr by SRB assay relative to control; conditions: OVCAR-3, 48 h, read-out: Activity
# HCT-116 = experiment: Cytotoxicity against Homo sapiens (human) HCT116 cells assessed as cell growth at 10 uM after 48 hr by SRB assay relative to control; conditions: HCT-116, 48 h, read-out: Activity
# SF-539 = experiment: Cytotoxicity against Homo sapiens (human) SF539 cells assessed as cell growth at 10 uM after 48 hr by SRB assay relative to control; conditions: SF-539, 48 h, read-out: Activity
# HOP-92 = experiment: Cytotoxicity against Homo sapiens (human) HOP92 cells assessed as cell growth at 10 uM after 48 hr by SRB assay relative to control; conditions: HOP-92, 48 h, read-out: Activity
# SR = experiment: Cytotoxicity against Homo sapiens (human) SR cells assessed as cell growth at 10 uM after 48 hr by SRB assay relative to control; conditions: read-out: Activity
# SW-620 = experiment: Cytotoxicity against Homo sapiens (human) SW620 cells assessed as cell growth at 10 uM after 48 hr by SRB assay relative to control; conditions: SW-620, 48 h, read-out: Activity
# KM12 = experiment: Cytotoxicity against Homo sapiens (human) KM12 cells assessed as cell growth at 10 uM after 48 hr by SRB assay relative to control; conditions: KM12, 48 h, read-out: Activity
# HT-29 = experiment: Cytotoxicity against Homo sapiens (human) HT-29 cells assessed as cell growth at 10 uM after 48 hr by SRB assay relative to control; conditions: HT-29, 48 h, read-out: Activity
# HCT-15 = experiment: Cytotoxicity against Homo sapiens (human) HCT15 cells assessed as cell growth at 10 uM after 48 hr by SRB assay relative to control; conditions: HCT-15, 48 h, read-out: Activity
# MOLT-4 = experiment: Cytotoxicity against Homo sapiens (human) MOLT4 cells assessed as cell growth at 10 uM after 48 hr by SRB assay relative to control; conditions: MOLT-4, 48 h, read-out: Activity
# K562 = experiment: Cytotoxicity against Homo sapiens (human) K562 cells assessed as cell growth at 10 uM after 48 hr by SRB assay relative to control; conditions: K562, 48 h, read-out: Activity
# HL-60(TB) = experiment: Cytotoxicity against Homo sapiens (human) HL-60(TB) cells assessed as cell growth at 10 uM after 48 hr by SRB assay relative to control; conditions: HL-60, 48 h, read-out: Activity
# [7] = Cytotoxicity against Homo sapiens (human) […] cells assessed as cell growth at 10 uM after 48 hr by SRB assay relative to control; conditions: read-out: Activity
# CCRF-CEM = experiment: Cytotoxicity against Homo sapiens (human) CCRF-CEM cells assessed as cell growth at 10 uM after 48 hr by SRB assay relative to control; conditions: read-out: Activity
# PC-3 = experiment: Cytotoxicity against Homo sapiens (human) PC3 cells assessed as cell growth at 10 uM after 48 hr by SRB assay relative to control; conditions: PC-3, 48 h, read-out: Activity
# DU-145 = experiment: Cytotoxicity against Homo sapiens (human) DU145 cells assessed as cell growth at 10 uM after 48 hr by SRB assay relative to control; conditions: DU-145, 48 h, read-out: Activity
# 786-0 = experiment: Cytotoxicity against Homo sapiens (human) 786-0 cells assessed as cell growth at 10 uM after 48 hr by SRB assay relative to control; conditions: 786-0, 48 h, read-out: Activity
# SF-295 = experiment: Cytotoxicity against Homo sapiens (human) SF295 cells assessed as cell growth at 10 uM after 48 hr by SRB assay relative to control; conditions: SF-295, 48 h, read-out: Activity
# SF-268 = experiment: Cytotoxicity against Homo sapiens (human) SF268 cells assessed as cell growth at 10 uM after 48 hr by SRB assay relative to control; conditions: SF-268, 48 h, read-out: Activity
# NCI-H460 = experiment: Cytotoxicity against Homo sapiens (human) NCI-H460 cells assessed as cell growth at 10 uM after 48 hr by SRB assay relative to control; conditions: NCI-H460, 48 h, read-out: Activity
# A549 = experiment: Cytotoxicity against Homo sapiens (human) A549 cells assessed as cell growth at 10 uM after 48 hr by SRB assay relative to control; conditions: A549, 48 h, read-out: Activity
# SNB-75 [8] = experiment: Cytotoxicity against Homo sapiens (human) SNB75 cells after 48 hr by SRB assay; conditions: SNB-75, 48 h
# HOP-62 = experiment: Cytotoxicity against Homo sapiens (human) HOP62 cells after 48 hr by SRB assay; conditions: HOP-62, 48 h
# UO-31 = experiment: Cytotoxicity against Homo sapiens (human) UO31 cells after 48 hr by SRB assay; conditions: UO-31, 48 h
# BT-549 = experiment: Cytotoxicity against Homo sapiens (human) BT549 cells after 48 hr by SRB assay; conditions: BT-549, 48 h
# A498 = experiment: Cytotoxicity against Homo sapiens (human) A498 cells after 48 hr by SRB assay; conditions: A498, 48 h
# U-251 = experiment: Cytotoxicity against Homo sapiens (human) U251 cells assessed as cell growth at 10 uM after 48 hr by SRB assay relative to control; conditions: U-251, 48 h, read-out: Activity
# SNB-75 [9] = experiment: Cytotoxicity against Homo sapiens (human) SNB75 cells assessed as cell growth at 10 uM after 48 hr by SRB assay relative to control; conditions: SNB-75, 48 h, read-out: Activity
smiles,measurement,setting,value
Cc1nn2c(SCC(=O)NCc3ccccc3Cl)nc3ccccc3c2nc1=O,growth at 10 µM,MDA-MB-435,79.8%
same,Activity,[1],180.9%
same,Activity,[2],148.9%
same,Activity,[3],142.9%
same,Activity,[4],110%
same,Activity,[5],91.7%
same,growth at 10 µM,NCI-H522,79.9%
same,Activity,[6],125%
O=C(CSc1nc2ccccc2c2nc(=O)c(-c3ccccc3)nn12)NCc1ccccc1Cl,growth at 10 µM,LOX IMVI,27.9%
same,Activity,[1],133.3%
same,Activity,[2],93%
same,Activity,[3],155%
same,Activity,[4],80%
same,Activity,[5],108.3%
same,growth at 10 µM,OVCAR-3,47.9%
same,growth at 10 µM,HCT-116,7.01%
same,growth at 10 µM,SF-539,9.93%
same,growth at 10 µM,HOP-92,44.8%
same,growth at 10 µM,SR,47.4%
same,growth at 10 µM,NCI-H522,43.2%
same,Activity,[6],110%
Cc1ccc(-c2nn3c(SCC(=O)Nc4cccc(C(F)(F)F)c4)nc4ccccc4c3nc2=O)cc1,Activity,[1],81.5%
same,Activity,[2],118.2%
same,Activity,[3],83.3%
same,Activity,[4],78.8%
same,Activity,[5],61.1%
same,growth at 10 µM,SF-539,80.8%
same,growth at 10 µM,HOP-92,71%
same,growth at 10 µM,SR,66.5%
same,Activity,[6],200%
COc1ccc(-c2nn3c(SCC(=O)Nc4ccccc4F)nc4ccccc4c3nc2=O)cc1,Activity,[1],96.67%
same,Activity,[2],100%
same,Activity,[3],40%
same,Activity,[4],84%
same,Activity,[5],90%
same,growth at 10 µM,SW-620,65.6%
same,growth at 10 µM,KM12,51.3%
same,growth at 10 µM,HT-29,67.8%
same,growth at 10 µM,HCT-15,92.2%
same,growth at 10 µM,HCT-116,56.7%
same,growth at 10 µM,MOLT-4,52.7%
same,growth at 10 µM,K562,60.2%
same,growth at 10 µM,HL-60(TB),67.9%
same,growth at 10 µM,SR,48.2%
same,growth at 10 µM,[7],67.6%
same,growth at 10 µM,CCRF-CEM,67.5%
same,Activity,[6],100%
Cc1ccc(-c2nn3c(SCC(=O)Nc4ccccc4F)nc4ccccc4c3nc2=O)cc1,Activity,[1],87.5%
same,Activity,[2],112.5%
same,Activity,[3],47.83%
same,Activity,[4],86.96%
same,Activity,[5],89.86%
same,growth at 10 µM,MOLT-4,82.3%
same,growth at 10 µM,K562,77.5%
same,growth at 10 µM,HL-60(TB),84.4%
same,growth at 10 µM,SR,73.7%
same,growth at 10 µM,[7],94.4%
same,growth at 10 µM,CCRF-CEM,76.8%
same,Activity,[6],100%
O=C(CSc1nc2ccccc2c2nc(=O)c(-c3ccccc3)nn12)NCc1ccccc1,growth at 10 µM,PC-3,18.1%
same,growth at 10 µM,DU-145,21.8%
same,growth at 10 µM,786-0,-7.56%
same,growth at 10 µM,MDA-MB-435,21.7%
same,growth at 10 µM,LOX IMVI,29.5%
same,growth at 10 µM,SF-295,55.7%
same,growth at 10 µM,SF-268,53.1%
same,growth at 10 µM,NCI-H460,1.57%
same,growth at 10 µM,A549,12.8%
same,Activity,[1],113.6%
same,Activity,[2],84.9%
same,Activity,[3],100%
same,Activity,[4],112.5%
same,Activity,[5],125%
same,growth at 10 µM,OVCAR-3,13.7%
same,GI50,SNB-75 [8],2.19 µM
same,LC50,SNB-75 [8],43.7 µM
same,TGI,SNB-75 [8]; read-out: pTGI (converted),13.5 µM
same,GI50,HOP-62,2.75 µM
same,LC50,HOP-62,30.2 µM
same,TGI,HOP-62; read-out: pTGI (converted),7.08 µM
same,GI50,UO-31,2.57 µM
same,LC50,UO-31,> 100 µM
same,TGI,UO-31; read-out: pTGI,> 100 µM
same,GI50,BT-549,3.02 µM
same,LC50,BT-549,> 100 µM
same,TGI,BT-549; read-out: pTGI (converted),7.76 µM
same,GI50,A498,0.0269 µM
same,LC50,A498,> 100 µM
same,TGI,A498; read-out: pTGI (converted),37.2 µM
same,growth at 10 µM,SW-620,19.4%
same,growth at 10 µM,KM12,12%
same,growth at 10 µM,HCT-116,48.6%
same,growth at 10 µM,MOLT-4,43%
same,growth at 10 µM,K562,29.7%
same,growth at 10 µM,HL-60(TB),51.6%
same,growth at 10 µM,HOP-92,24.6%
same,growth at 10 µM,SR,41.9%
same,growth at 10 µM,[7],44.5%
same,growth at 10 µM,U-251,30.1%
same,growth at 10 µM,CCRF-CEM,37.9%
same,Activity,[6],78.2%
Cc1ccc(-c2nn3c(SCC(=O)Nc4ccccc4C)nc4ccccc4c3nc2=O)cc1,Activity,[1],66.7%
same,Activity,[2],100%
same,Activity,[3],193.5%
same,Activity,[4],109.7%
same,Activity,[5],119.7%
same,growth at 10 µM,U-251,63.5%
same,growth at 10 µM,SNB-75 [9],46.7%
same,growth at 10 µM,CCRF-CEM,-49.6%
same,Activity,[6],93.3%
COc1ccc(-c2nn3c(SCC(=O)Nc4ccccc4C(F)(F)F)nc4ccccc4c3nc2=O)cc1,Activity,[1],200%
same,Activity,[2],185.2%
same,Activity,[3],113.4%
same,Activity,[4],106.5%
same,Activity,[5],97.8%
same,growth at 10 µM,[7],85.1%
same,Activity,[6],102.9%
